Measured values as given in US8202879B2, “Quinazoline derivatives having tyrosine kinase inhibitory activity” (Shionogi & Co., Ltd., priority 2005, dated 2012).
Where two headings read alike, the source gives them in different places.

Experiments:
[1] = molecular target: T1, HER2 (Homo sapiens, UniProt P04626); test: Enzyme inhibitory activity on HER2 (time resolution fluorescence, biotinylated poly-Glu-Tyr substrate); assay type: biochemical
T1 construct: purchased Carna Biosciences, Inc; host or cells: insect cell expression system
Method in brief: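 Insect-cell-expressed HER2 (1000 ng/ml working stock) with biotinylated poly-Glu-Tyr (4:1; 3.125 μg/ml stock) and ATP (290 μM solution) in TBS with MgCl2, MnCl2, Na3VO4 and BSA, 60 min at room temperature. 10-point 4-fold dilutions from a 1 mM top solution. Phosphotyrosine detected by TR-FRET with Eu-antibody and streptavidin-XL.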

[2] = system: BT-474; test: In vitro cell proliferation inhibition, WST assay; assay type: cell-based, human; details: BT-474 cells, cultured for 3 days, read-out: BT-474 (nM) proliferation inhibitory activity (IC50 value)
Description: Test of In Vitro Cell Proliferation Inhibition of Test Compound
As a human-derived cancer cell strain, BT-474 was used. Cells were all cultured in a 37° C., 5% CO2 incubator in a medium in which 10% bovine fetal serum (ICN) and 50 units ml penicillin/60 μg/ml streptomycin solution (GIBCO) were added to Dulbecco's Modified Essential Medium (DMEM, Nacalai Tesque, Inc).

[3] = molecular target: T2, EGFR (Homo sapiens, UniProt P00533); test: Enzyme inhibitory activity on EGFR (time resolution fluorescence, biotinylated poly-Glu-Tyr substrate); assay type: biochemical
T2 construct: purchased Carna Biosciences, Inc; host or cells: insect cell expression system
Method in brief: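 Insect-cell-expressed EGFR phosphorylated biotinylated poly-Glu-Tyr (4:1) for 60 min at room temperature in TBS with MgCl2, MnCl2, Na3VO4 and BSA. Enzyme 250 ng/ml, substrate 3.125 μg/ml and ATP 125 μM as working solutions. EDTA stop; Eu anti-phosphotyrosine/streptavidin-XL time-resolved fluorescence read; 10-point 4-fold dilutions.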

[4] = HER2 purified from insect cell expression system, ATP solution 290 μM, room temperature, 60 minutes
[5] = EGFR purified from insect cell expression system, ATP solution 125 μM, room temperature, 60 minutes
[6] = enzyme reaction at room temperature for 60 minutes

T2 sequence (P00533 25-1210): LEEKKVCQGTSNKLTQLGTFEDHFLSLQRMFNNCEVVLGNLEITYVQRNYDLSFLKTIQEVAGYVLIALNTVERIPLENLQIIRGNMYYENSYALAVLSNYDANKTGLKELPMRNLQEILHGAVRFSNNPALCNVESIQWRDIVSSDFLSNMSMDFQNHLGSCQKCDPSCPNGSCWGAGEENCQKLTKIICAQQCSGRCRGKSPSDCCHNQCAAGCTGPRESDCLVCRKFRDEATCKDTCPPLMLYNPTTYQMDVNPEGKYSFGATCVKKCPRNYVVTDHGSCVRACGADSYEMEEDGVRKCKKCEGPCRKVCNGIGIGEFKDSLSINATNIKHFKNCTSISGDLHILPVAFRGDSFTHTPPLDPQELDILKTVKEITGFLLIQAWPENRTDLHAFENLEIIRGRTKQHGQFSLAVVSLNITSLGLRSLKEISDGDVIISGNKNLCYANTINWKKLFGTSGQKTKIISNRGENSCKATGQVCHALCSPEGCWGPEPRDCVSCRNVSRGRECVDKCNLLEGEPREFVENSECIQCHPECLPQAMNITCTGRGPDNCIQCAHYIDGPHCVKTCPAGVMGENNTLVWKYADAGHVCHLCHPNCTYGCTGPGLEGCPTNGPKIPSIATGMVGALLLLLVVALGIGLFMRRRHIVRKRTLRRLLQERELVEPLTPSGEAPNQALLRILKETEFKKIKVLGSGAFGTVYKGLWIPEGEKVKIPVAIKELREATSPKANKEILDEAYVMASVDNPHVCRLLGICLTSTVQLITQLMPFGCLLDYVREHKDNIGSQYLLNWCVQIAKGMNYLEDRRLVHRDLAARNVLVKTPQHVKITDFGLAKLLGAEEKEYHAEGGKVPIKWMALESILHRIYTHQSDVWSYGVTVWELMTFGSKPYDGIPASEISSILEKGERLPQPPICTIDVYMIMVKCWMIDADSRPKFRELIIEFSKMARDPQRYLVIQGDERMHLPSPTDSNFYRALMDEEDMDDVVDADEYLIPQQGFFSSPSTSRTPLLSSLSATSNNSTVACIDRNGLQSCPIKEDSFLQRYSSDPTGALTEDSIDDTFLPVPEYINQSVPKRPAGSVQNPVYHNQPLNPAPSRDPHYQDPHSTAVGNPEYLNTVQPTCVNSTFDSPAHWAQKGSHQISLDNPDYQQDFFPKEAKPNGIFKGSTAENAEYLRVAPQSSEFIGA
T1 sequence (P04626 23-1255): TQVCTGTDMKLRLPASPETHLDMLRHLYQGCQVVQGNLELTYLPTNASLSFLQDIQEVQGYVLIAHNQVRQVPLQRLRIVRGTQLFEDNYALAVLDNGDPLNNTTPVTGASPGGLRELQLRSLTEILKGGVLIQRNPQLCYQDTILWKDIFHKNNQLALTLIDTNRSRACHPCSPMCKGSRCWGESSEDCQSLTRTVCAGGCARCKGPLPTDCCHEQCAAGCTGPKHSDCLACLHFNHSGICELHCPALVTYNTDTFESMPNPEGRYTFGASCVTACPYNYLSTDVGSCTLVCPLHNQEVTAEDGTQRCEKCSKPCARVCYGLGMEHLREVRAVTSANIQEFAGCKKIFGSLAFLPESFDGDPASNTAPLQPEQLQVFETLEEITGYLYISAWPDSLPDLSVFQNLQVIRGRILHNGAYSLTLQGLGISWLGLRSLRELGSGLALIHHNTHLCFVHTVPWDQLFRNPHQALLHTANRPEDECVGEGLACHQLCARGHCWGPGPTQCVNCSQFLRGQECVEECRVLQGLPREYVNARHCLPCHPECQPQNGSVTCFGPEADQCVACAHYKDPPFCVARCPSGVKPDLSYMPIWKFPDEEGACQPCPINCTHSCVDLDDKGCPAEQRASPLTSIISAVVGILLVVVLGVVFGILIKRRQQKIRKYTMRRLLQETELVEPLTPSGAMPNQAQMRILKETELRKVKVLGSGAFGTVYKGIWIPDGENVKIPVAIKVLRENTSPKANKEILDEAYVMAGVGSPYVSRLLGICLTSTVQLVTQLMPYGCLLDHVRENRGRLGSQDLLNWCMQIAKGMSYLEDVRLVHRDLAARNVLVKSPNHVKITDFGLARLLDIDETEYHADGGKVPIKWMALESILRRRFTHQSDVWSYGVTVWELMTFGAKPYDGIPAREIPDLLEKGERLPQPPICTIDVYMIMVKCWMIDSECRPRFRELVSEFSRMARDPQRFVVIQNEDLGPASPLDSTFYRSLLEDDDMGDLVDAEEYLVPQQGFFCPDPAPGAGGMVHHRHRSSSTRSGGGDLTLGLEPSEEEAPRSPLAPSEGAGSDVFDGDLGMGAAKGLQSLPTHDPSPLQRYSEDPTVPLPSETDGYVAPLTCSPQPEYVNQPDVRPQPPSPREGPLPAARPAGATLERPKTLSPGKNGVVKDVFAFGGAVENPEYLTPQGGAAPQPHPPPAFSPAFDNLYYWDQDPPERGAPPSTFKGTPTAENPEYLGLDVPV

Row | SMILES | IC50 [1, 4] [nM] | IC50 ([2]; Homo sapiens, BT-474, 72 h) [nM] | IC50 [3, 5] [nM] | IC50 [2] [nM] | IC50 [1, 6] [nM] | IC50 [3, 6] [nM]
1 | CC#C/C(=N\OC[C@@H]1CNC[C@H](C)O1)c1ccc2ncnc(Nc3ccc(OCc4cccc(F)c4)c(Cl)c3)c2c1 [VIII-109] | 18 | 40 | 23 |  |  | 
2 | CC#C/C(=N\OC[C@@H]1CNC[C@@H](C)O1)c1ccc2ncnc(Nc3ccc(OCc4cccc(F)c4)c(Cl)c3)c2c1 [VIII-110] | 35 |  | 29 | 21 |  | 
3 | CC#C/C(=N\OC[C@H]1CNCC(=O)N1)c1ccc2ncnc(Nc3ccc(OCc4cccc(F)c4)c(Cl)c3)c2c1 [VIII-111] | 55 |  | 37 | 15 |  | 
4 | CC#C/C(=N\OC[C@H]1CN(CCO)CCN1)c1ccc2ncnc(Nc3ccc(OCc4cccc(F)c4)c(Cl)c3)c2c1 [VIII-112] | 13 |  | 11 | 8 |  | 
5 | CC#C/C(=N\OC[C@H]1CN(C)CCN1)c1ccc2ncnc(Nc3ccc(OCc4cccc(F)c4)c(Cl)c3)c2c1 [VIII-113] | 12 | 13 | 9.7 |  |  | 
6 | CC#C/C(=N\OC[C@H]1CNCCO1)c1ccc2ncnc(Nc3ccc(OCc4cccc(F)c4)c(Cl)c3)c2c1 [VIII-114] | 69 |  | 57 | 37 |  | 
7 | CC#C/C(=N\OC[C@H]1CNC[C@@H](C)O1)c1ccc2ncnc(Nc3ccc(OCc4cccc(F)c4)c(Cl)c3)c2c1 [VIII-116] | 25 |  | 37 | 50 |  | 
8 | CC#C/C(=N\OC[C@H]1CNC[C@H](C)O1)c1ccc2ncnc(Nc3ccc(OCc4cccc(F)c4)c(Cl)c3)c2c1 [VIII-117] | 53 |  | 47 | 20 |  | 
9 | CC#C/C(=N\OC[C@H]1CS(=O)(=O)CCN1)c1ccc2ncnc(Nc3ccc(OCc4cccc(F)c4)c(Cl)c3)c2c1 [VIII-118] | 223 |  | 197 | 22 |  | 
10 | CC#C/C(=N\OC[C@@H]1CNCC(=O)N1)c1ccc2ncnc(Nc3ccc(OCc4cccc(F)c4)c(Cl)c3)c2c1 [VIII-119] | 77 |  | 81 | 31 |  | 
11 | CNCCO/N=C(\C#CC1CC1)c1ccc2ncnc(Nc3ccc(OCc4cccc(F)c4)c(Cl)c3)c2c1 [VIII-120] | 29 | 32 | 33 |  |  | 
12 | CNCCO/N=C(\C#CCO)c1ccc2ncnc(Nc3ccc(OCc4cccc(F)c4)c(Cl)c3)c2c1 [VIII-121] | 18 |  | 17 | 10 |  | 
13 | OCC#C/C(=N\OCCN1CCCC1)c1ccc2ncnc(Nc3ccc(OCc4cccc(F)c4)c(Cl)c3)c2c1 [VIII-122] | 24 | 14 | 29 |  |  | 
14 | CNCCO/N=C(\C#CCOC)c1ccc2ncnc(Nc3ccc(OCc4cccc(F)c4)c(Cl)c3)c2c1 [VIII-123] |  |  |  | 31 | 38 | 24
15 | COCC#C/C(=N\OCCN1CCCC1)c1ccc2ncnc(Nc3ccc(OCc4cccc(F)c4)c(Cl)c3)c2c1 [VIII-124] |  | 14 |  |  | 38 | 40
16 | CCCC#CC(=NOCCNC)c1ccc2ncnc(Nc3ccc(OCc4cccc(F)c4)c(Cl)c3)c2c1 [VIII-127] |  |  |  | 61 | 35 | 37
17 | CC#C/C(=N\OCCN1CCCC(O)C1)c1ccc2ncnc(Nc3ccc(OCc4ccccn4)c(Cl)c3)c2c1 (stereo not drawn) [VIII-128] |  | 37 |  |  | 17 | 15
18 | CC#C/C(=N\OC[C@@H](C)N)c1ccc2ncnc(Nc3ccc(OCc4ccccn4)c(Cl)c3)c2c1 [VIII-129] |  | 12 |  |  | 6.3 | 7.1
19 | CC#C/C(=N\OCCNC(C)COC)c1ccc2ncnc(Nc3ccc(OCc4ccccn4)c(Cl)c3)c2c1 (stereo not drawn) [VIII-130] |  | 50 |  |  | 5.2 | 8.1

Row | SMILES | IC50 [1, 4] [nM] | IC50 ([2]; Homo sapiens, BT-474, 72 h) [nM] | IC50 [3, 5] [nM] | IC50 [2] [nM] | IC50 [1, 6] [nM] | IC50 [3, 6] [nM]
20 | CC#C/C(=N\OC[C@@H](COC)NC)c1ccc2ncnc(Nc3ccc(OCc4ccccn4)c(Cl)c3)c2c1 [VIII-131] |  | 14 |  |  | 4.4 | 5.8
21 | CC#C/C(=N\OCCNCCS(C)(=O)=O)c1ccc2ncnc(Nc3ccc(OCc4ccccn4)c(Cl)c3)c2c1 [VIII-132] |  | 18 |  |  | 14 | 14
22 | CC#C/C(=N\OCCNCCCN1CCCC1=O)c1ccc2ncnc(Nc3ccc(OCc4ccccn4)c(Cl)c3)c2c1 [VIII-133] |  | 43 |  |  | 7.1 | 8.4
23 | CC#C/C(=N\OCCNCCNC(C)=O)c1ccc2ncnc(Nc3ccc(OCc4ccccn4)c(Cl)c3)c2c1 [VIII-134] |  | 14 |  |  | 7.4 | 7.1
24 | CC#C/C(=N\OCCNCCOC(N)=O)c1ccc2ncnc(Nc3ccc(OCc4ccccn4)c(Cl)c3)c2c1 [VIII-135] |  | 28 |  |  | 8.1 | 7.6
25 | CC#C/C(=N\OCCNC1CC1)c1ccc2ncnc(Nc3ccc(OCc4ccccn4)c(Cl)c3)c2c1 [VIII-136] |  | 53 |  |  | 21 | 21
26 | CC#C/C(=N\OCCNC[C@@H]1CCCO1)c1ccc2ncnc(Nc3ccc(OCc4ccccn4)c(Cl)c3)c2c1 [VIII-137] |  | 78 |  |  | 14 | 13
27 | CC#C/C(=N\OCCNC[C@@H](C)CO)c1ccc2ncnc(Nc3ccc(OCc4ccccn4)c(Cl)c3)c2c1 [VIII-139] |  | 32 |  |  | 3.8 | 5
28 | CC#C/C(=N\OCCNC[C@H](C)CO)c1ccc2ncnc(Nc3ccc(OCc4ccccn4)c(Cl)c3)c2c1 [VIII-140] |  | 30 |  |  | 4.3 | 5.5
29 | CC#C/C(=N\OCCNC1CCOCC1)c1ccc2ncnc(Nc3ccc(OCc4ccccn4)c(Cl)c3)c2c1 [VIII-141] |  | 46 |  |  | 7.9 | 10
30 | CC#C/C(=N\OCCNC1CCN(S(C)(=O)=O)CC1)c1ccc2ncnc(Nc3ccc(OCc4ccccn4)c(Cl)c3)c2c1 [VIII-142] |  | 31 |  |  | 4.4 | 5.5
31 | CC#C/C(=N\OCCNCCO)c1ccc2ncnc(Nc3ccc(OCc4ccccn4)c(Cl)c3)c2c1 [VIII-143] |  | 24 |  |  | 3.6 | 3.5
32 | CC#C/C(=N\OCCN(C)CCO)c1ccc2ncnc(Nc3ccc(OCc4ccccn4)c(Cl)c3)c2c1 [VIII-145] |  | 21 |  |  | 8.9 | 9.4
33 | CC#C/C(=N\OCCN(C)CCOC)c1ccc2ncnc(Nc3ccc(OCc4ccccn4)c(Cl)c3)c2c1 [VIII-146] |  | 45 |  |  | 10 | 12
34 | CC#C/C(=N\OCCCNC)c1ccc2ncnc(Nc3ccc(OCc4ccccn4)c(Cl)c3)c2c1 [VIII-147] |  | 25 |  |  | 13 | 13
35 | CC#C/C(=N\OCCN1CCCC1)c1ccc2ncnc(Nc3ccc(OCc4ccccn4)c(Cl)c3)c2c1 [VIII-148] |  | 26 |  |  | 5.8 | 6.1
36 | CC#C/C(=N\OCCN1CC[C@@H](NC(C)=O)C1)c1ccc2ncnc(Nc3ccc(OCc4ccccn4)c(Cl)c3)c2c1 [VIII-149] |  | 28 |  |  | 14 | 13
37 | CC#C/C(=N\OCCN1CCC[C@@H]1CO)c1ccc2ncnc(Nc3ccc(OCc4ccccn4)c(Cl)c3)c2c1 [VIII-150] |  | 30 |  |  | 11 | 12
38 | CC#C/C(=N\OCCN1CC[C@@H](OC(N)=O)C1)c1ccc2ncnc(Nc3ccc(OCc4ccccn4)c(Cl)c3)c2c1 [VIII-151] |  | 47 |  |  | 19 | 20
